Test results published in patent US20080161393A1, “Use of prodrugs of GABA analogs for treating disease” (priority 2006, published 2008).

How the values were obtained:
[1] = Randomized, crossover, fed/fasted single-dose pharmacokinetic study of oral sustained release tablets of compound (3) in healthy adult subjects; assay type: in vivo, human
Procedure: A randomized, crossover, fed/fasted single-dose study of the safety, tolerability, and pharmacokinetics of oral administration of 1-{[(α-isobutanoyloxyethoxy)carbonyl]aminomethyl}-1-cyclohexane acetic acid (3) in healthy adult subjects was conducted. The oral sustained release dosage form of Example 6 (uncoated) was used in this study. The study was designed to evaluate the performance of this formulation in humans in comparison with the commercial gabapentin capsule formulation (Neurontin®, Pfizer). Twelve healthy adult volunteers (7 males and 5 females) participated in the study. Mean body weight was 75.6 kg. All subjects received two different treatments in a random order with a one-week washout between treatments. The two treatments were: A) a single oral dose of Example 6 tablets (2×600 mg) after an overnight fast; and B) a single oral dose of Example 6 tablets (2×600 mg) after a high fat breakfast.
Blood and plasma samples were collected from all subjects prior to dosing, and at 0.5, 1, 1.5, 2, 3, 4, 6, 8, 12, 18, 24, and 36 hours after dosing. Urine samples were collected from all subjects prior to dosing, and complete urine output was obtained at the 0-4 h, 4-8 h, 8-12 h, 12-18 h, 18-24 h, and 24-36 h intervals after dosing. Blood samples were quenched immediately with methanol and stored frozen at […]. Sample aliquots were prepared for analysis of gabapentin and compound (3) using sensitive and specific LC/MS/MS methods.

[2] = cited from earlier work

Structure (SMILES) | AUC of compound (3) in blood as % of corresponding AUC of gabapentin in blood ([1]; fasted subjects) [%] | Maximum intact compound (3) concentration as % of corresponding peak gabapentin concentration ([1]; fasted subjects) | AUC of compound (3) in blood as % of corresponding AUC of gabapentin in blood ([1]; fed subjects) | Maximum intact compound (3) concentration as % of corresponding peak gabapentin concentration ([1]; fed subjects) | Typical Tmax of immediate release gabapentin [2] [h]
CC(OC(=O)NCC1(CC(=O)O)CCCCC1)OC(=O)C(C)C (stereo not drawn) [compound (3), 1-{[(α-Isobutanoyloxyethoxy)carbonyl]aminomethyl}-1-Cyclohexane Acetic Acid] | 0.3 | approximately 1.0% | less than 0.1% | approximately 0.3% | 
NCC1(CC(=O)O)CCCCC1 [gabapentin] |  |  |  |  | 2 to 4
